Test results as given in patent publication US6890716B1, “Recombinant cell line and screening method for identifying agents which regulate apoptosis and tumor suppression” (Howard Hughes Medical Institute, priority 1998, dated 2005).
Blank lines part the entries; values can stand above or below the molecule they belong to.

Tests used:
p53A cells = assay: Apoptotic morphology of transfected cells by indirect immunofluorescence at the permissive temperature; format: cell-based, rat; settings: 24 μg plasmid DNA, permissive temperature (FIG. 9)
Experimental: Apoptotic morphology was assessed by scoring for cells that are positive by fluorescence microscopy and are rounded and non adherent.
In addition, we determined the percentage of cells with apoptotic morphology that were ectopically expressing wild-type p300 ectopically or the E1A-binding mutant of p300 following transient transfection with 24 μg of plasmid DNA. Apoptotic morphology was determined by counting cells that were rounded in shape and detaching from the dish. The percentage of cells with apoptotic morphology transiently expressing a control protein, a fragment of the lamin A protein (Rao et al. 1996), compared to p300 and mutant p300 transfected p53A cells at the permissive temperature was determined by indirect immunofluorescence.

mdm2 in p53A cells = assay: Up-regulation of endogenous Mdm2 by indirect immunofluorescence; format: cell-based, rat; settings: indirect immunofluorescence (FIG. 7)
Experimental: Cells were fixed in cold methanol prior to incubation with primary antibodies. Subsequent to several washes in PBS, cells were incubated with rhodamine-conjugated goat anti-mouse antibody or fluorescein-conjugated goat anti-rabbit antibody. Cells were then washed, mounted and analyzed by fluorescence microscopy using a Nikon FXA epifluorescence microscope.
The indicated amount of plasmid DNA was transfected by electroporation. After transfection, cells were incubated at 37.5° C. for 24 hours to recover, and were then shifted to 32° C. for 24 hours before analysis for viability by trypan blue staining and apoptotic morphology. […]
We next attempted to rescue p53A cells from apoptosis at the permissive temperature by ectopically expressing p300. Vector alone, wild-type p300 and a functional but truncated form of p300 with a deletion of E1A binding domain (Arany et al. 1994), were transiently transfected in p53A cells. p53-dependent apoptosis was examined at the permissive temperature 48 hours post-transfection. p53A cells transiently expressed the exogenous wild-type p300 and the E1A binding mutant form of p300, neither of which were detected in mock transfected cells. The up-regulation of mdm2 in p300 transfected cells was not detected by Western blot analysis above endogenous levels (FIG. 6) because the transfection efficiency was low in transient assays. […]

[1] = target: temperature sensitive p53 (val135) mutant expressed in p53A cells (UniProt P02340); assay: cell-based or functional assay
[2] = test system: GAL-4 luciferase reporter construct in HeLa cells; assay: Transcriptional reporter assay (GAL-4 luciferase reporter); format: cell-based
Experimental: Transcriptional reporter assays were performed as described previously (Catron, et al., 1995). HeLa cells were plated onto 60 mm tissue culture dishes and grown to 50-75% confluency. The cells were then transfected with 2.5 μg of a GAL-4 luciferase reporter construct (kindly provided by Dr. C. Abate-Shen, Center for Advanced Biotechnology and Medicine, Piscataway, N.J.) along with 2.5 μg of both a pm1 vector (BtfS, BtfS-N552 or BtfS-C210) and a bcl-2 family gene (pCMV-E1B 19K, pcDNA3-Bcl-2, or pcDNA3-Flag-Bcl-xL). DNA concentrations were kept constant using appropriate empty vectors, either pm1 or pcDNA3. The cells were transfected using SuperFect (Qiagen, Valencia, Calif.) according to the manufacturer's specifications and harvested 24 hours post-transfection. Expression of mutant and wild-type BtfS proteins were verified by immunofluorescence using an antibody against the GAL-4 DNA-binding domain (Clontech, San Fransisco, Calif.). Luciferase activity was determined using the Luciferase Assay System (Promega Corp., Madison, Wis.) measured in a scintillation counter, and then normalized for protein concentrations measured by a Bradford assay. […]
To address these issues, BtfS was cloned into a mammalian expression vector (pm1) containing the GAL-4 DNA binding domain. Transcriptional activity was monitored using a reporter construct containing GAL-4 promoter sites. […]

Molecule: wild-type p300: Transcriptional coactivator p300, HA-tagged, expressed from pCMVβp300
percentage of expressing cells with apoptotic morphology (p53A cells): 4% | transfected cells showing up-regulation of Mdm2 (mdm2 in p53A cells): 90%

Molecule: mutant p300: Functional but truncated p300 with deletion of the E1A binding domain (pCMVβp300Δ30)
percentage of expressing cells with apoptotic morphology (p53A cells): 8% | transfected cells showing up-regulation of Mdm2 (mdm2 in p53A cells): 90%

percentage of apoptotic cells (morphology, indirect immunofluorescence) among p53A cells expressing the protein [1]: 10%
Molecule: wild-type mdm2 (pCOC-X2 / pCMVβ-X2) (from UniProt P23804 1-489)

percentage of apoptotic cells (morphology, indirect immunofluorescence) among p53A cells expressing the protein [1]: 30%
Molecule: mutant mdm2 with deletion of the N-terminal p53-binding domain (pCOC-ΔXM / pCMVβ-ΔXM) (from UniProt P23804 102-489)

B1: pm1-BtfS: BtfS fused to the GAL-4 DNA binding domain in mammalian expression vector pm1 (protein)
chain: MKLLSSIEQACDICRLKKLKCSKEKPKCAKCLKNNWECRYSPKTKRSPLTRAHLTEVESRLERLEQLFLLIFPREDLDMILKMDSLQDIKALLTGLFVQDNVNKDAVTDRLASVETDMPLTLRQHRISATSSSEESSNKGQRQLTVSMGRANSRSHSSRSKSRSQSSSRSRSRSHSRKKRYRSRSRTYSRSRSRDRMYSRDYRRDYRNNRGMRRPYGYRGRGRGYYQGGGGRYHRGGYRPVWNRRHSRSPRRGRSRSRSPKRRSVSSRSRSRSRRSYRSSRSPRSSSSRSSSPYSKSPVSKRRGSQEKQTKKAEGEPQEESPLKSKSQEEPKDTFEHDPSESIDEFNKSSATSGDIWPGLSAYDNSPRSPHSPSPIATPPSQSSSCSDAPMLSTVHSAKNTPSQHSHSIQHSPERSGSGSVGNGSSRYSPSQNSPIHHIPSRRSPAKTIAPQNAPRDESRGRSSFYPDGGDQETAKTGKFLKRFTDEESRVFLLDRGNTRDKEASKEKGSEKGRAEGEWEDQEALDYFSDKESGKQKFNDSEGDDTEETEDYRQFRKSVLADQGKSFATASHRNTEEEGLKYKSKVSLKGNRESDGFREEKNYKLKETGYVVERPSTTKDKHKEEDKNSERITVKKETQSPEQVKSEKLKDLFDYSPPLHKNLDAREKSTFREESPLRIKMIASDSHRPEVKLKMAPVPLDDSNRPASLTKDRLLASTLVHSVKKEQEFRSIFDHIKLPQASKSTSESFIQHIVSLVHHVKEQYFKSAAMTLNERFTSYQKATEEHSTRQKSPEIHRRIDISPSTLRKHTRLAGEERVFKEENQKGDKKLRCDSADLRHDIDRRRKERSKERGDSKGSRESSGSRKQEKTPKDYKEYKSYKDDSKHKREQDHSRSSSSSASPSSPSSREEKESKKEREEEFKTHHEMKEYSGFAGVSRPRGTFFRIRGRGRARGVFAGTNTGPNNSNTTFQKRPKEEEWDPEYTPKSKKYFLHDDRDDGVDYWAKRGRGRGTFQRGRGRFNFKKSGSSPKWTHDKYQGDGIVEDEEETMENNEEKKDRRKEEKE
decrease in transcription compared to empty pm1 vector control ([2]; 24 hours post-transfection (FIG. 27)): ~10 fold

B2: ΔC210: Deletion mutant of BtfS, amino acids 1-210, cloned into pm1 (protein, UniProt Q9NYF8 1-210, looked up, fragment)
chain: MGRSNSRSHSSRSKSRSQSSSRSRSRSHSRKKRYSSRSRSRTYSRSRSRDRMYSRDYRRDYRNNRGMRRPYGYRGRGRGYYQGGGGRYHRGGYRPVWNRRHSRSPRRGRSRSRSPKRRSVSSQRSRSRSRRSYRSSRSPRSSSSRSSSPYSKSPVSKRRGSQEKQTKKAEGEPQEESPLKSKSQEEPKDTFEHDPSESIDEFNKSSATSG
modifications: BtfS isoform
notes: Deletion mutant of BtfS, amino acids 1-210, cloned into pm1
ability to repress transcription (in words) ([2]; pm1 GAL-4 DNA-binding domain fusions (FIG. 27)): sufficient for repression and nearly as potent as full-length BtfS
